From ChEMBL document CHEMBL1201862, “PubChem BioAssay data set” (2004) come the findings set out here.

Some test systems named below: UO-31; HT-29; HOP-62; A549; Malme-3M; OVCAR-8; SF-539; SNB-19; OVCAR-5; RPMI-8226; OVCAR-3; NCI-H23; U-251; UACC-62; M14; CCRF-CEM; HL-60; HOP-92; SK-MEL-2; HCC 2998.
What all share (experiment): inhibition of tumour cell growth, NCI panel, 48 h

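Values below derive from 48-hour exposures of cells grown in 96-well plates, with endpoints linearly interpolated between the two concentrations bracketing the appropriate inhibition level. The concentration for 50% growth inhibition is given as GI50.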 Active and inactive are the calls of the source. Rule as the data show it: active = GI50 up to about 1.1 µM and inactive = higher. Where only a bound is given, the exact number is not on record here.

Regarding `Cc1cc(S(=O)(=O)Nc2nc(Nc3ccccc3)n[nH]2)c(SSc2cc(Cl)c(C)cc2S(=O)(=O)Nc2nc(Nc3ccccc3)n[nH]2)cc1Cl`, the GI50 in the test with UO-31 was > 100 µM (inactive); in the test with HT-29, 98.2 µM (inactive); in the test on HOP-62 it was > 100 µM (inactive); in the test with A549, > 100 µM (inactive); in the test on Malme-3M, 46.8 µM (inactive); with OVCAR-8, > 100 µM (inactive). The GI50 was > 10 µM (inactive) in the test on SF-539; 94.8 µM (inactive) in the test on SNB-19; > 100 µM (inactive) in the test on OVCAR-5; > 100 µM (inactive) in the test on RPMI-8226; > 100 µM (inactive) with OVCAR-3; > 100 µM (inactive) in the test with NCI-H23. Also, the GI50 with U-251 is 61.4 µM (inactive); in the test with UACC-62 it was > 100 µM (inactive); in the test with M14 it was > 100 µM (inactive); in the test with CCRF-CEM, 43.8 µM (inactive); with HL-60, 25.1 µM (inactive).
Turning to `COc1cccc(C2C(C(=O)O)=C(CO)Oc3cc4c(cc32)OCO4)c1OC` (stereo not drawn), the GI50 in the test with UO-31, in the test with Malme-3M, in the test with OVCAR-8, in the test with SF-539, in the test with SNB-19 and with RPMI-8226 was > 100 µM (inactive) in each case. Also, the GI50 was > 100 µM (inactive) with OVCAR-3; > 100 µM (inactive) in the test on NCI-H23; > 100 µM (inactive) in the test on U-251; > 100 µM (inactive) in the test on UACC-62; 97.7 µM (inactive) in the test with HOP-92; > 100 µM (inactive) in the test on SK-MEL-2. The GI50 in the test with M14, in the test with CCRF-CEM and with HL-60 was > 100 µM (inactive) each time.
Regarding `CC(C)(C)[Si](C)(C)OCC1OC(n2cnc3c(N)ncnc32)CC1OS(C)(=O)=O` (stereo not drawn), the GI50 with UO-31 was 51.4 µM (inactive); in the test on HT-29, > 100 µM (inactive); in the test with HOP-62, 45.8 µM (inactive); with Malme-3M it was > 100 µM (inactive); with OVCAR-8, > 100 µM (inactive); with SNB-19, > 100 µM (inactive). Moreover, the GI50 with OVCAR-5 is 89.1 µM (inactive); in the test on RPMI-8226 it was > 100 µM (inactive); with OVCAR-3, 27.4 µM (inactive); in the test with NCI-H23, 51.1 µM (inactive); in the test with U-251, > 100 µM (inactive); in the test with UACC-62, 42.1 µM (inactive). Also, the GI50 in the test with HOP-92 was 0.506 µM (active); with SK-MEL-2 it was > 100 µM (inactive); in the test with M14, 21.7 µM (inactive); with CCRF-CEM, > 100 µM (inactive); with HL-60 it was 64.9 µM (inactive).
For the compound `O=C1OC(c2ccccc2)=N/C1=C\c1ccc(Oc2ccc(Cl)c(Cl)c2)cc1`, the GI50 in the test with UO-31 is 21.8 µM (inactive); in the test with HT-29 it was 69 µM (inactive); in the test with HOP-62 it was 88.3 µM (inactive); in the test with A549, 43.1 µM (inactive); with Malme-3M, 26 µM (inactive); in the test with OVCAR-8, 21.2 µM (inactive). Also, the GI50 with SF-539 was 24.2 µM (inactive); in the test on SNB-19 it was 35.5 µM (inactive); in the test on OVCAR-5, > 100 µM (inactive); in the test with NCI-H23 it was 35.4 µM (inactive); in the test with HCC 2998, 50 µM (inactive); in the test on U-251 it was 24.1 µM (inactive). Further, the GI50 was 26.2 µM (inactive) in the test with UACC-62; 55 µM (inactive) in the test with HOP-92; 50.5 µM (inactive) with SK-MEL-2; 49.5 µM (inactive) with M14; 23.1 µM (inactive) in the test on CCRF-CEM; 27.9 µM (inactive) with HL-60.
Turning to `COc1nc2cccc(C(O)c3ccccc3)c2nc1-c1ccccc1` (stereo not drawn), the GI50 is 8.39 µM (inactive) in the test with UO-31; 5.18 µM (inactive) with HT-29; 3.78 µM (inactive) in the test with HOP-62; 4.88 µM (inactive) in the test with A549; 17 µM (inactive) in the test on Malme-3M; 8.22 µM (inactive) in the test with OVCAR-8. Further, the GI50 in the test with SF-539 was 2.88 µM (inactive); in the test with SNB-19, 4.36 µM (inactive); in the test with OVCAR-5, 11 µM (inactive); in the test on RPMI-8226 it was 2.94 µM (inactive); in the test on OVCAR-3, 3.91 µM (inactive); in the test on NCI-H23 it was 3.27 µM (inactive). The GI50 in the test on U-251 is 4.19 µM (inactive); with UACC-62, 5.92 µM (inactive); with HOP-92, 6.92 µM (inactive); with SK-MEL-2 it was 9.95 µM (inactive); with M14 it was 4.39 µM (inactive); in the test on CCRF-CEM, 3.02 µM (inactive). In the test with HL-60, the GI50 was 3.18 µM (inactive).
Consider `C=C1C(=O)O[C@H]2[C@H]1[C@@H](OC(=O)C=C(C)C)CC1=C[C@@H](C[C@@]3(C)O[C@@H]23)OC1=O`, for which the GI50 is 7.74 µM (inactive) in the test on UO-31; 4.14 µM (inactive) with HT-29; 27.9 µM (inactive) in the test on HOP-62; 22 µM (inactive) with A549; 8.04 µM (inactive) in the test on Malme-3M; 2.24 µM (inactive) with SF-539. For the same compound, the GI50 is 22.3 µM (inactive) with SNB-19; 16.7 µM (inactive) in the test on OVCAR-5; 1.59 µM (inactive) with OVCAR-3; 3.13 µM (inactive) in the test with NCI-H23; 17.4 µM (inactive) in the test with HCC 2998; 16.3 µM (inactive) with U-251. Further, the GI50 with UACC-62 is 3.52 µM (inactive); in the test on HOP-92 it was 2.1 µM (inactive); in the test with SK-MEL-2, 9.1 µM (inactive); in the test on CCRF-CEM, 0.859 µM (active).
`O=C(O)/C(Cc1ccnc2ccccc12)=N\O`: the GI50 in the test on UO-31, in the test with HT-29, with HOP-62, in the test with A549, in the test on Malme-3M and in the test on OVCAR-8 was > 100 µM (inactive) in each case. In addition, the GI50 in the test with SF-539, in the test on SNB-19, in the test on OVCAR-5, in the test on RPMI-8226, in the test with OVCAR-3 and in the test with NCI-H23 was > 100 µM (inactive) throughout. Moreover, the GI50 with U-251, with UACC-62, in the test on HOP-92, with SK-MEL-2, in the test with M14 and in the test on CCRF-CEM was > 100 µM (inactive) throughout. The GI50 with HL-60 was > 100 µM (inactive).
Take `COC(=S)OC1CC(n2cnc3c(N)ncnc32)OC1CO[Si](C)(C)C(C)(C)C` (stereo not drawn): the GI50 was 16.6 µM (inactive) in the test on UO-31; 16.5 µM (inactive) in the test with HT-29; 16 µM (inactive) with HOP-62; 31.5 µM (inactive) with Malme-3M; 24.3 µM (inactive) in the test with OVCAR-8; 33 µM (inactive) in the test with SNB-19. Also, the GI50 in the test with OVCAR-5 was 20.6 µM (inactive); with RPMI-8226, 19 µM (inactive); in the test with OVCAR-3 it was 15.3 µM (inactive); in the test with NCI-H23, 14 µM (inactive); with U-251 it was 14.3 µM (inactive); in the test on UACC-62, 10.6 µM (inactive). The GI50 was 31 µM (inactive) with HOP-92; 22.6 µM (inactive) in the test with SK-MEL-2; 16.4 µM (inactive) with M14; 10.1 µM (inactive) in the test on CCRF-CEM; > 100 µM (inactive) in the test on HL-60.
